Source: doi:10.1101/2024.10.12.618019v1 (biorxiv, 2024)
pKi: −log10 of the molar value.

Experiments:
Experiment in all cases: biochemical
5HT5A = 5HT5A (Homo sapiens, UniProt P47898)
5HT6 = 5HT6 (Homo sapiens, UniProt P50406)
5HT1A = molecular target: T1, 5HT1A (Homo sapiens, UniProt P08908)
T1 sequence (P08908 1-422): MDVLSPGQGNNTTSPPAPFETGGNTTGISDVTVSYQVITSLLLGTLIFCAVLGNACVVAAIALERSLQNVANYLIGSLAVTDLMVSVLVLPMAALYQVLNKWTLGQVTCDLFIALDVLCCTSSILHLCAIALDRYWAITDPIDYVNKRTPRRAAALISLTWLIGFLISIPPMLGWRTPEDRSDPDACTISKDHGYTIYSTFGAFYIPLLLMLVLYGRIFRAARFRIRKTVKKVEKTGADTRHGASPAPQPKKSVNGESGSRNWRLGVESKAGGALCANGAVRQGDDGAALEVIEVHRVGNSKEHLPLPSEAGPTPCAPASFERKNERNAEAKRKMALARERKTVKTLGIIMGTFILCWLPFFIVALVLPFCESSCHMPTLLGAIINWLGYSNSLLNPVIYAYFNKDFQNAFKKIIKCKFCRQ

D2 = D2 (Homo sapiens, UniProt P14416)
NOP = NOP (Homo sapiens, UniProt P41146)
NOP, sequence (P41146 whole entry): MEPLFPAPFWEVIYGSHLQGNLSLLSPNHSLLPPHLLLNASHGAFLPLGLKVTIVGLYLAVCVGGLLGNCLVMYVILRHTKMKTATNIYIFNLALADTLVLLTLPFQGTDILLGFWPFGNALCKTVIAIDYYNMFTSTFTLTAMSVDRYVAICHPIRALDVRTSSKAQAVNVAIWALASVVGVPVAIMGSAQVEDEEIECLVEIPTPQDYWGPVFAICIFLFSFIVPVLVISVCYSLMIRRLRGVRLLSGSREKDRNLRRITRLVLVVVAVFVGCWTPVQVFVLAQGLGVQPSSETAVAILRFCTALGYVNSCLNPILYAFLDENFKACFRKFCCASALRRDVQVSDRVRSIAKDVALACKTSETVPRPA

H1 = H1 (Homo sapiens, UniProt P35367)
H1, sequence (P35367 whole entry): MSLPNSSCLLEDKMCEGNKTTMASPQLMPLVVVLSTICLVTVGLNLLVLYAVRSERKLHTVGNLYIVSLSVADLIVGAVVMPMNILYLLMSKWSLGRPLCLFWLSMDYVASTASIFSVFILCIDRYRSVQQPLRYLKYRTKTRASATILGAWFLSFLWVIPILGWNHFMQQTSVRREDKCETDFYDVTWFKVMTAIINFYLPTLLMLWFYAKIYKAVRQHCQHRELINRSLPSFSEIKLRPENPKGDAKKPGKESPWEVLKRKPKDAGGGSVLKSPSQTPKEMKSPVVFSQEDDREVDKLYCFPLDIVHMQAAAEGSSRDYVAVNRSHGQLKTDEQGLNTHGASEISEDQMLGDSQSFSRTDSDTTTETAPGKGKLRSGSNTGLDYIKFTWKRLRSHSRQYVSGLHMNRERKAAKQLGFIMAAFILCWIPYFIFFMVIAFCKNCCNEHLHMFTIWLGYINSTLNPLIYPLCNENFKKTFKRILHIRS

D3 = D3 (Homo sapiens, UniProt P35462)
5HT1E = 5HT1E (Homo sapiens, UniProt P28566)
5HT3 = molecular target: T2, 5HT3 (Homo sapiens, UniProt P46098)
T2 sequence (P46098 1-478): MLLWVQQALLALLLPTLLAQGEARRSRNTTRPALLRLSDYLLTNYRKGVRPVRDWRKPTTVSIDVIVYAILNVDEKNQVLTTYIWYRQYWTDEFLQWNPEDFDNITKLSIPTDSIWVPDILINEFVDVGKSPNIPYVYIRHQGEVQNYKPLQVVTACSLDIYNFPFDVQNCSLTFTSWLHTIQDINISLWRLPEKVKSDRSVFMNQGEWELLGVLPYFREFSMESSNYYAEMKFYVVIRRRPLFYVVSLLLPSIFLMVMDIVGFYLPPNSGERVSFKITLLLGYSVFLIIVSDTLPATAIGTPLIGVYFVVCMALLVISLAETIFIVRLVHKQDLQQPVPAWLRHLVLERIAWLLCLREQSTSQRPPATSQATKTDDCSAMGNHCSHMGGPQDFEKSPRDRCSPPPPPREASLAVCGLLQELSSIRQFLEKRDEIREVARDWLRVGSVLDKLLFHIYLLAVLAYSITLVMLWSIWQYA

D5 = D5 (Homo sapiens, UniProt P21918)
D5, sequence (P21918 whole entry): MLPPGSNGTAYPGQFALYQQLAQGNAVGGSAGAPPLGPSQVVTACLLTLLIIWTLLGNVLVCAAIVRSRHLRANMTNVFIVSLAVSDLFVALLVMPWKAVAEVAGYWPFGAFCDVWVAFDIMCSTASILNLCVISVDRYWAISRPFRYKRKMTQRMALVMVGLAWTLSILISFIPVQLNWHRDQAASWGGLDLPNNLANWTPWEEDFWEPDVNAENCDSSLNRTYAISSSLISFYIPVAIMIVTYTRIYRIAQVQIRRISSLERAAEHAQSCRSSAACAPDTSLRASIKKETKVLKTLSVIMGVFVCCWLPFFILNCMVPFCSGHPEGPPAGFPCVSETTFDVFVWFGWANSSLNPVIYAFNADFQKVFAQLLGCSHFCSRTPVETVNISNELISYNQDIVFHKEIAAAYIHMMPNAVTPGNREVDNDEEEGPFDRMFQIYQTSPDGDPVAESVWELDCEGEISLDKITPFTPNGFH

H4 = H4 (Homo sapiens, UniProt Q9H3N8)
H4, sequence (Q9H3N8 whole entry): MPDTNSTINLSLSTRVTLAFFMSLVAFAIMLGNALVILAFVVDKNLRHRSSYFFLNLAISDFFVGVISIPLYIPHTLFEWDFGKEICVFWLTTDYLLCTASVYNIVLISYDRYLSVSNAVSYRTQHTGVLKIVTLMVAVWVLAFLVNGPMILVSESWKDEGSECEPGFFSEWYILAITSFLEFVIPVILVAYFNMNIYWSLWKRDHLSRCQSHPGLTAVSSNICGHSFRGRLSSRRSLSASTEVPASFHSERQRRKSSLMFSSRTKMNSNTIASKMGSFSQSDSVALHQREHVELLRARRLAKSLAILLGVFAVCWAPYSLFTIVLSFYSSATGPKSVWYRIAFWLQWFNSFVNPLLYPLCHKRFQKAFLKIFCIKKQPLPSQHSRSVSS

D1 = D1 (Homo sapiens, UniProt P21728)
D1, sequence (P21728 whole entry): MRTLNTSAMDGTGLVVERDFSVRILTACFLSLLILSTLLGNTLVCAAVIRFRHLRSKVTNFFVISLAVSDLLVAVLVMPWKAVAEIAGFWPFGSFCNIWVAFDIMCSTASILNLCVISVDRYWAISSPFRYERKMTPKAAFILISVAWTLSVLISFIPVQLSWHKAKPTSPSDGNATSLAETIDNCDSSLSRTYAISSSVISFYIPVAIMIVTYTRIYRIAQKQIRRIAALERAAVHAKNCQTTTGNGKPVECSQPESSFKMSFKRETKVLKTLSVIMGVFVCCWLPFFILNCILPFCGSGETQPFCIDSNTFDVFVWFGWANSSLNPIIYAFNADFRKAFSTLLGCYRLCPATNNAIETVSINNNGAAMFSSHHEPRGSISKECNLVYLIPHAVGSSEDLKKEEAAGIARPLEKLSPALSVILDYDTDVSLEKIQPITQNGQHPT

5HT2B = 5HT2B (Homo sapiens, UniProt P41595)
5HT2B, sequence (P41595 whole entry): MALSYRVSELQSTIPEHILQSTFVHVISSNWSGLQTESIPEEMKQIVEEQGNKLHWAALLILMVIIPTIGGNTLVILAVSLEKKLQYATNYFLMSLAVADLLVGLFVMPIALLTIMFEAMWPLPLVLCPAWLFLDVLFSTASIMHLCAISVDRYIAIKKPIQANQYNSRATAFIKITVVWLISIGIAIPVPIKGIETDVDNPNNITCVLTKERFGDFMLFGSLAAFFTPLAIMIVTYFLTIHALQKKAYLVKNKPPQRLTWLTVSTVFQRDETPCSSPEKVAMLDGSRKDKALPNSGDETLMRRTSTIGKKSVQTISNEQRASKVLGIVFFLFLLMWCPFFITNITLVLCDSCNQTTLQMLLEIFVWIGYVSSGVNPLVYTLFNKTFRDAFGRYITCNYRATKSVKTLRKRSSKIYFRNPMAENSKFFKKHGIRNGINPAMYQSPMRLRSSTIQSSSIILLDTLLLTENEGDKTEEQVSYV

MOR = MOR (Homo sapiens, UniProt P35372)
MOR, sequence (P35372 whole entry): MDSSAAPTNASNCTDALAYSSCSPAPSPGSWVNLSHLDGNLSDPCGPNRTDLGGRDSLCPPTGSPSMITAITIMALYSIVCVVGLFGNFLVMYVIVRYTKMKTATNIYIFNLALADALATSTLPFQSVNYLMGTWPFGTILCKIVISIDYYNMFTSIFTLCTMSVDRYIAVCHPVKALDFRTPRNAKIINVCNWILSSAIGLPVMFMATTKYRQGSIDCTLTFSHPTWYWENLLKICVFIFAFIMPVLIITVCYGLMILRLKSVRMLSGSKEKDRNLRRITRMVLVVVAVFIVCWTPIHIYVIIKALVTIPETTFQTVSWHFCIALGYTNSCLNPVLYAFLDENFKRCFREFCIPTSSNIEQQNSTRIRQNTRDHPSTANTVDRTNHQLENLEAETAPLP

5HT2C = molecular target: T3, 5HT2C (Homo sapiens, UniProt P28335)
T3 sequence (P28335 1-458): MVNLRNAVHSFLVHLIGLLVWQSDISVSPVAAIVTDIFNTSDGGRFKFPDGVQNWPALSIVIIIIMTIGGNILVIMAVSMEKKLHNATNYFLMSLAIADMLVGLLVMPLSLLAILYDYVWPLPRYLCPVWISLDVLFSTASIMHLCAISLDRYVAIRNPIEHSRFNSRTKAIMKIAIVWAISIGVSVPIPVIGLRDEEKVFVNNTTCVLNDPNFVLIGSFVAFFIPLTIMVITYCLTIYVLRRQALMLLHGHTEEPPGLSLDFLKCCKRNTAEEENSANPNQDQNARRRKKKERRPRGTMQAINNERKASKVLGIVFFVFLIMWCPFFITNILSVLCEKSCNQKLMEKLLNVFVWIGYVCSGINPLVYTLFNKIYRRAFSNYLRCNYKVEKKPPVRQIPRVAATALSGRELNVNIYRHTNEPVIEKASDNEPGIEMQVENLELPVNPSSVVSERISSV

D4 = molecular target: T4, D4 (Homo sapiens, UniProt P21917)
T4 sequence (P21917 1-419): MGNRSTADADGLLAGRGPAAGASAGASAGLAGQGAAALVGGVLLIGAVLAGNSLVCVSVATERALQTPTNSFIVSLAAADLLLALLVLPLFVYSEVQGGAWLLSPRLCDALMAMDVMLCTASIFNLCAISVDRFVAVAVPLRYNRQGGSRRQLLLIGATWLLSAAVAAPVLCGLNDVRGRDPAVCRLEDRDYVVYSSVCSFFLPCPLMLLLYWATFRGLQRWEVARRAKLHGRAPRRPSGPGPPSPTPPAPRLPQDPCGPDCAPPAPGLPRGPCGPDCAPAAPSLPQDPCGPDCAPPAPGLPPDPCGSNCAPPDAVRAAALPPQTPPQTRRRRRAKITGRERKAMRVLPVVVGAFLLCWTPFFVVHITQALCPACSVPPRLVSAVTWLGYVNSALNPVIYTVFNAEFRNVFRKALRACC

DAT = DAT (Homo sapiens, UniProt Q01959)
5HT7A = 5HT7A (Homo sapiens, UniProt P34969)
SERT = SERT (Homo sapiens, UniProt P31645)
SERT, sequence (P31645 whole entry): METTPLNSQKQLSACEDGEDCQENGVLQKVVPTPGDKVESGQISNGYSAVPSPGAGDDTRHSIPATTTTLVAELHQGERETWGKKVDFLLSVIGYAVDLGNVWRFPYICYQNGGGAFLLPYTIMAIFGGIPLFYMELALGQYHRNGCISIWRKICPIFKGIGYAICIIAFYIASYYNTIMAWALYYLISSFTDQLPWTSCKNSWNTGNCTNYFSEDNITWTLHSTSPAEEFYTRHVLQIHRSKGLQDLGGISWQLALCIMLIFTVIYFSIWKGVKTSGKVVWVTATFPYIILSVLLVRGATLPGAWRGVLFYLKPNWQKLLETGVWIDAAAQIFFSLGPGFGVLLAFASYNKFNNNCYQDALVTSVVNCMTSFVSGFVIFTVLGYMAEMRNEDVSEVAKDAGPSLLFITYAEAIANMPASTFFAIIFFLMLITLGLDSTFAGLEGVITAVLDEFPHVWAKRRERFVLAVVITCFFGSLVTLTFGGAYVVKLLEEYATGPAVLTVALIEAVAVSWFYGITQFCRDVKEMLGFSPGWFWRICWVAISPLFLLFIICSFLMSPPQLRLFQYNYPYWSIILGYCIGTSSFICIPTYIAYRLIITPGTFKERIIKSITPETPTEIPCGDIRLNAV

5HT2A = 5HT2A (Homo sapiens, UniProt P28223)
5HT2A, sequence (P28223 whole entry): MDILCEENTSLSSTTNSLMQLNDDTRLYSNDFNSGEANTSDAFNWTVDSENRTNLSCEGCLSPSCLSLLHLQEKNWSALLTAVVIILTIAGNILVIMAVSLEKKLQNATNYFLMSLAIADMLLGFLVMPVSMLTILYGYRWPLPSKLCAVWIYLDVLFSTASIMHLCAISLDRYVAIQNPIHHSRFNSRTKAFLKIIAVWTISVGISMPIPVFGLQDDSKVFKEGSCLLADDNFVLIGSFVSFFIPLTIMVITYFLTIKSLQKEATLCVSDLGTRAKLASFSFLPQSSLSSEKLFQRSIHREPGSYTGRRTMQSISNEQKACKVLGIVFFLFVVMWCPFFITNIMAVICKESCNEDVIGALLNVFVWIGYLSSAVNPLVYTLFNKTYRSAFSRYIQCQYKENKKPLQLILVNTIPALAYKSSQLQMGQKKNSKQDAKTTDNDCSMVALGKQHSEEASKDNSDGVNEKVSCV

DOR = DOR (Homo sapiens, UniProt P41143)
5HT1D = 5HT1D (Homo sapiens, UniProt P28221)
5HT1B = 5HT1B (Homo sapiens, UniProt P28222)

5HT5A, sequence (P47898 whole entry): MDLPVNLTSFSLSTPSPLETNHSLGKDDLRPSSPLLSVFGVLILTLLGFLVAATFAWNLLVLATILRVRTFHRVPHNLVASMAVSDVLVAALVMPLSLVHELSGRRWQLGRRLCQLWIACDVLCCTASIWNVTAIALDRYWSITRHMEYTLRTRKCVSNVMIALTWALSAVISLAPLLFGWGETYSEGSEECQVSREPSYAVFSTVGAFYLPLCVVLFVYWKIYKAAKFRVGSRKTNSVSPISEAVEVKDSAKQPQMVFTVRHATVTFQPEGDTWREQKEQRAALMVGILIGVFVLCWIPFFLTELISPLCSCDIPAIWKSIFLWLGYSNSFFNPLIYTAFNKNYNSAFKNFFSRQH
5HT6, sequence (P50406 whole entry): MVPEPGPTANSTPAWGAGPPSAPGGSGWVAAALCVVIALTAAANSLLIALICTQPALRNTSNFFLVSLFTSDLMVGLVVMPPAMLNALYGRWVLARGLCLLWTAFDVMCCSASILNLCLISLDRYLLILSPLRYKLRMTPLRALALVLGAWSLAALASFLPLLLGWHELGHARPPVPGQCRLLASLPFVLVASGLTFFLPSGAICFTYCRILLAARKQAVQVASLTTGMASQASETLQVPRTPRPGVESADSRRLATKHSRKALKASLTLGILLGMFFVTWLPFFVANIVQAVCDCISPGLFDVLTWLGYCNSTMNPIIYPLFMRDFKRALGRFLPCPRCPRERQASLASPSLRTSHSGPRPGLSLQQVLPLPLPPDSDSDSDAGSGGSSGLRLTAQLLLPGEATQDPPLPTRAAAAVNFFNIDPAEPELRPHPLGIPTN

Row | SMILES | pKi (5HT5A) | pKi (5HT6) | pKi (5HT1A) | pKi (D2) | pKi (NOP) | pKi (H1) | pKi (D3) | pKi (5HT1E) | pKi (5HT3) | pKi (D5) | pKi (H4) | pKi (D1) | pKi (5HT2B) | pKi (MOR) | pKi (5HT2C) | pKi (D4) | pKi (DAT) | pKi (5HT7A) | pKi (SERT) | pKi (5HT2A) | also measured
1 | Cc1cc(C(N)=O)cc(-c2cc(F)c(CNC3Cc4ccccc4C3)c(F)c2)c1 [1A] | < 5.00 | < 5.00 | < 5.00 | 5.19 | < 5.00 | < 5.00 | 6.33 | < 5.00 | < 5.00 | < 5.00 | < 5.00 | 6.00 | < 5.00 | 8.08 | < 5.00 | 6.23 | 6.27 | < 5.00 | 6.28 | < 5.00 | –
2 | Cc1cc(-c2cc(F)c(CNC3Cc4ccccc4C3)c(F)c2)cc(-c2ncn[nH]2)c1 [4A] | < 5.00 | < 5.00 | < 5.00 | < 5.00 | < 5.00 | < 5.00 | < 5.00 | – | < 5.00 | < 5.00 | < 5.00 | 5.73 | 6.32 | – | < 5.00 | 5.75 | 6.30 | < 5.00 | 6.48 | < 5.00 | –
3 | Cc1cc(C(N)=O)cc(-c2ccc(CNC3Cc4ccccc4C3)c(F)c2)c1 [2A] | < 5.00 | < 5.00 | < 5.00 | < 5.00 | < 5.00 | < 5.00 | 6.13 | < 5.00 | < 5.00 | < 5.00 | < 5.00 | 5.90 | < 5.00 | 8.04 | < 5.00 | 6.13 | – | 6.05 | 6.76 | < 5.00 | pKi (DOR): 6.46; pKi (5HT1D): 5.78
4 | Cc1cc(-c2ccc(CNC3Cc4ccccc4C3)c(F)c2)cc(-c2ncn[nH]2)c1 [5A] | 5.09 | < 5.00 | < 5.00 | < 5.00 | 6.25 | 5.21 | 6.74 | < 5.00 | < 5.00 | < 5.00 | < 5.00 | 5.90 | 6.02 | – | < 5.00 | 5.26 | 6.52 | 6.15 | 6.94 | 5.99 | pKi (5HT1B): 5.46; pKi (5HT1D): 5.85
5 | Cc1cc(-c2ccc(CNC3Cc4ccccc4C3)cc2)cc(-c2nc[nH]n2)c1 [6A] | 5.40 | < 5.00 | < 5.00 | < 5.00 | 6.78 | 5.84 | < 5.00 | < 5.00 | < 5.00 | < 5.00 | < 5.00 | 6.14 | 6.08 | 8.38 | 6.33 | 5.75 | 6.54 | 6.13 | 6.89 | 6.00 | pKi (DOR): 7.01; pKi (5HT1D): 5.88
6 | Cc1cc(C(N)=O)cc(-c2ccc(CNC3Cc4ccccc4C3)cc2)c1 [3A] | < 5.00 | < 5.00 | < 5.00 | < 5.00 | < 5.00 | < 5.00 | < 5.00 | – | < 5.00 | < 5.00 | < 5.00 | 5.88 | < 5.00 | 8.11 | 5.64 | 7.57 | 6.07 | 6.01 | 6.51 | < 5.00 | pKi (5HT1D): < 5.00
